Test results published in ChEMBL document CHEMBL4304741, “Modification and Biological Evaluation of a Series of 1,5-Diaryl-1,2,4-triazole Compounds as Novel Agents against Pancreatic Cancer Metastasis through Targeting Myoferlin” (J Med Chem, 2019).
Calls of active or inactive are those of the source. The calls are words filed in the database; no cut-off is given here.

Assays:
PANC-1 [1] = experiment: Effect on fibronectin expression in MYOF-knockout human PANC1 cells up to 400 nM by Western blot analysis; type: functional, cell-based
Myoferlin [2] = molecular target: T1, Myoferlin (Homo sapiens, UniProt Q9NZM1); experiment: Inhibition of MYOF in human PANC1 cells assessed as increase in EGF-stimulated EGFR phosphorylation by Western blot analysis; type: cell-based
T1 sequence (Q9NZM1 whole entry): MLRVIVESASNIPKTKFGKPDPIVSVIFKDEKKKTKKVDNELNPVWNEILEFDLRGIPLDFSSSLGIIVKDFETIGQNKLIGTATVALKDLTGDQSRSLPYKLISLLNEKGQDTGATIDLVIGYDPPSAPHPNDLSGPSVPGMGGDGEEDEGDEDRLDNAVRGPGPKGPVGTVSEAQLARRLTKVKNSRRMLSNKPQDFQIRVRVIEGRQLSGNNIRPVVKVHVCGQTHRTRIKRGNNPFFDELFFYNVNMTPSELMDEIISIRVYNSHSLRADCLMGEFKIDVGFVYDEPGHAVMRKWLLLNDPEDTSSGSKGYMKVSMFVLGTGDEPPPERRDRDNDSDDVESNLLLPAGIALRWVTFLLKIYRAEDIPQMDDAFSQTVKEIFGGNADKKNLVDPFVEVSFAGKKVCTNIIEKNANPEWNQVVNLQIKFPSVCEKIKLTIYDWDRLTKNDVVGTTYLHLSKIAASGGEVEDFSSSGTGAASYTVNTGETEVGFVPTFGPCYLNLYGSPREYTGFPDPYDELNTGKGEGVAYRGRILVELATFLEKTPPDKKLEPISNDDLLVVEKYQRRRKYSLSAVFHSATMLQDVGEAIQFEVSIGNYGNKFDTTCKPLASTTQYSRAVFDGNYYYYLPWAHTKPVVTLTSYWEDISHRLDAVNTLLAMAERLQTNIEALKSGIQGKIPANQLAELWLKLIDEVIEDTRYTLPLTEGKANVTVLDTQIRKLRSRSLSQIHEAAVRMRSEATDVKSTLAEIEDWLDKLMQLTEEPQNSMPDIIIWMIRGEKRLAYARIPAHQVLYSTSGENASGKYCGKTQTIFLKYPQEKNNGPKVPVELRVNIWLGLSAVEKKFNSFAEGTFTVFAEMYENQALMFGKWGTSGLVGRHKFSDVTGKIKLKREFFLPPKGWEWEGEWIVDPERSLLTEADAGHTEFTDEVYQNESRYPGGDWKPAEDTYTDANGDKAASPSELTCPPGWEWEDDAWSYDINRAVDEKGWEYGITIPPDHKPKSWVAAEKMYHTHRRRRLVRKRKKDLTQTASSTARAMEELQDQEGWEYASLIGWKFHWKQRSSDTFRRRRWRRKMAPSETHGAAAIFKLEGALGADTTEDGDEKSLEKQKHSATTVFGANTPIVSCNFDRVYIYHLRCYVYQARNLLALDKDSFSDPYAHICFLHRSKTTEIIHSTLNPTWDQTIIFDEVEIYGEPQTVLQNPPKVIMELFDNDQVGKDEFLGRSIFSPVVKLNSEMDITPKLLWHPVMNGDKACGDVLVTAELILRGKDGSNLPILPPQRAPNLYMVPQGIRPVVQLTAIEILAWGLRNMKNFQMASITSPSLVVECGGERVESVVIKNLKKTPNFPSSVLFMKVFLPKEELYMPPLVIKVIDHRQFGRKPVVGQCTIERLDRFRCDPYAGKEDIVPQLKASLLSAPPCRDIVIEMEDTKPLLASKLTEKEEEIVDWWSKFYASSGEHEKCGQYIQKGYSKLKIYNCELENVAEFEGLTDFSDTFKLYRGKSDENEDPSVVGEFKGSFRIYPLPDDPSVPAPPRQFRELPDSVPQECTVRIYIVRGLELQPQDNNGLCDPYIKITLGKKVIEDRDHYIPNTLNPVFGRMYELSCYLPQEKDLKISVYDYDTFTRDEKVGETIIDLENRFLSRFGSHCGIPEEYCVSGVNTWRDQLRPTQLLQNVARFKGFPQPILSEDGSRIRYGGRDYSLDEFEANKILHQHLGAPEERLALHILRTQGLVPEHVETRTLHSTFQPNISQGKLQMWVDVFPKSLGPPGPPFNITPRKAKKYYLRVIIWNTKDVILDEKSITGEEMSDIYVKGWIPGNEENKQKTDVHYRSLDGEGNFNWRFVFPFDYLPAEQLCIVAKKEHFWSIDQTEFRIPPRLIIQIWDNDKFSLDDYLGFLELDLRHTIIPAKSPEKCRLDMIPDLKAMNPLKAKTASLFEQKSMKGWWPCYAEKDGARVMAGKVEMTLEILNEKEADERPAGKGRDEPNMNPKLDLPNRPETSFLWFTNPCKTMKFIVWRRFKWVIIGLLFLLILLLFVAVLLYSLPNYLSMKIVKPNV

[3] = Toxicity in Balb/c nude mouse xenografted with PANC1 cells assessed as pathological changes in lung at 25 to 50 mg/kg/day, ip by H and E staining-based microscopic analysis; type: organism-based; conditions: in vivo
MCF-10A = experiment: Cytotoxicity against human MCF10A cells assessed as reduction in cell viability measured after 48 hrs by MTS assay; type: cell-based
Myoferlin [4] = molecular target: T1, Myoferlin; experiment: Inhibition of MYOF in human PANC1 cells assessed as reduction in MMP2 secretion measured after 24 hrs by SDS-PAGE analysis; type: cell-based
PANC-1 [5] = experiment: Effect on Snail1 expression in human PANC1 cells up to 400 nM by Western blot analysis; type: functional, cell-based
[6] = Toxicity in Balb/c nude mouse xenografted with PANC1 cells assessed as pathological changes in spleen at 25 to 50 mg/kg/day, ip by H and E staining-based microscopic analysis; type: organism-based; conditions: in vivo
MIA PaCa-2 [7] = experiment: Cytotoxicity against human MIAPaCa2 cells assessed as reduction in cell viability measured after 48 hrs by MTS assay; type: cell-based; conditions: MIA PaCa-2, 48 h
Capan-2 [8] = experiment: Cytotoxicity against human Capan2 cells assessed as reduction in cell viability measured after 48 hrs by MTS assay; type: cell-based; conditions: Capan-2, 48 h
[9] = Cytotoxicity against human HPDE6c7 cells assessed as reduction in cell viability measured after 48 hrs by MTS assay; type: cell-based; conditions: HPDE6c7, 48 h
Capan-2 [10] = experiment: Antimigratory activity against human Capan2 cells measured after 36 hrs in presence of mitomycin C using crystal violet staining by inverted microscopy-based transwell assay; type: functional, cell-based
PANC-1 [11] = experiment: Antimetastatic activity against human PANC1 cells harboring luciferase reporter gene xenografted in Balb/c nude mouse assessed as mouse survival at 50 mg/kg/day, ip (reference value: 25%); type: functional; conditions: PANC-1, ip
Cytochrome P450 2E1 = Cytochrome P450 2E1 (Homo sapiens, UniProt P05181); experiment: Inhibition of CYP2E1 in human liver microsomes using chlorzoxazone as substrate preincubated for 5 mins followed by NADPH-generating system addition and measured after 20 mins by LC-MS/MS analysis
Cytochrome P450 2E1, sequence (P05181 whole entry): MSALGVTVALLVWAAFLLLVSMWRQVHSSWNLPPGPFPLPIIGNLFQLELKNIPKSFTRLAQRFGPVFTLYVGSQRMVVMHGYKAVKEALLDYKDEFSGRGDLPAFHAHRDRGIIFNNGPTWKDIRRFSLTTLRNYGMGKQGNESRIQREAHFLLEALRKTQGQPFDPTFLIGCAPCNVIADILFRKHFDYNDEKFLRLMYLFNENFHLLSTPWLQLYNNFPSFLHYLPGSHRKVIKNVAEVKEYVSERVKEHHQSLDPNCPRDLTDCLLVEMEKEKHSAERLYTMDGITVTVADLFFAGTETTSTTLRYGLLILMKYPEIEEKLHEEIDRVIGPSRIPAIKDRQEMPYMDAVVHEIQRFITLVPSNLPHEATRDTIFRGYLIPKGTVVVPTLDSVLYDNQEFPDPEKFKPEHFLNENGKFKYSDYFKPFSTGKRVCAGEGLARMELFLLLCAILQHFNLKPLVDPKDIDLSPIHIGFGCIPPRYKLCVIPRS

Myoferlin [12] = molecular target: T1, Myoferlin; experiment: Inhibition of MYOF in human PANC1 cells assessed as reduction in VEGFR2 level by Western blot analysis; type: cell-based
PANC-1 [13] = experiment: Effect on myosin 2A expression in human PANC1 cells up to 400 nM by Western blot analysis; type: functional, cell-based
PANC-1 [14] = experiment: Effect on MMP1 secretion in MYOF-knockout human PANC1 cells up to 400 nM by Western blot analysis; type: functional, cell-based
[15] = molecular target: Epidermal growth factor receptor (Homo sapiens) (UniProt P00533); experiment: Effect on EGF-stimulated EGFR phosphorylation in MYOF-knockout human PANC1 cells at 400 nM by Western blot analysis
Epidermal growth factor receptor (Homo sapiens), sequence (P00533 whole entry): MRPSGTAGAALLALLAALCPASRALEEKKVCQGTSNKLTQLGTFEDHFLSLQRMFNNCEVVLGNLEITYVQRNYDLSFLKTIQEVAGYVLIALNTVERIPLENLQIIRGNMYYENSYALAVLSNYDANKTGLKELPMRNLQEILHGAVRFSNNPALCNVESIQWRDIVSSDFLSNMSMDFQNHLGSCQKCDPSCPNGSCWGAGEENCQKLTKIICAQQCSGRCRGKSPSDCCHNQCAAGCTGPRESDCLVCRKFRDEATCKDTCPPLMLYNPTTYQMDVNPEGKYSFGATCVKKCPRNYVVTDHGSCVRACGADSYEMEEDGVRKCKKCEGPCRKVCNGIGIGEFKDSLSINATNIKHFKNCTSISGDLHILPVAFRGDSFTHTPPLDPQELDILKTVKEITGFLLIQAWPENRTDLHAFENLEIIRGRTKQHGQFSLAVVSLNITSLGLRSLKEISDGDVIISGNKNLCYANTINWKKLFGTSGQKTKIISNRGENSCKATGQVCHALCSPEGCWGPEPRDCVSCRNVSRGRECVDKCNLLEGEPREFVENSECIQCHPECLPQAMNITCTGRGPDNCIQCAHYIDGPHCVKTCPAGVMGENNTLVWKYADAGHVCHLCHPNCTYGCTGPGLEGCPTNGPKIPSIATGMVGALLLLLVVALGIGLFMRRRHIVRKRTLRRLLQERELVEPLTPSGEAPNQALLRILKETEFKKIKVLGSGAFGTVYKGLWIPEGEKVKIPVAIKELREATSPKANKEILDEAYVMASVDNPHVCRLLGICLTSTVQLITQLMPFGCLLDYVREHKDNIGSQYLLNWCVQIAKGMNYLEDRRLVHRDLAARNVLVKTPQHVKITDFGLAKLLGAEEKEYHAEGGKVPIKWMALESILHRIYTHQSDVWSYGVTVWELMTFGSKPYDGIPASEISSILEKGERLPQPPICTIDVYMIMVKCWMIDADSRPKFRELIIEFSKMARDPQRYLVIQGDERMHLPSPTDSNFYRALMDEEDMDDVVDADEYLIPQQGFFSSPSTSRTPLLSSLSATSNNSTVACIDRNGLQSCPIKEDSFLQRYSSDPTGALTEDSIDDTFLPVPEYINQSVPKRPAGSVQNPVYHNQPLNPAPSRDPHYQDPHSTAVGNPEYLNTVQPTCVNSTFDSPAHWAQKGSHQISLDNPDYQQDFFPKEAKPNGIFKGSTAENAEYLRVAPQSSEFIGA

Cytochrome P450 2D6 = Cytochrome P450 2D6 (Homo sapiens, UniProt P10635); experiment: Inhibition of CYP2D6 in human liver microsomes using tolbutamide as substrate preincubated for 5 mins followed by NADPH-generating system addition and measured after 20 mins by LC-MS/MS analysis
Cytochrome P450 2D6, sequence (P10635 whole entry): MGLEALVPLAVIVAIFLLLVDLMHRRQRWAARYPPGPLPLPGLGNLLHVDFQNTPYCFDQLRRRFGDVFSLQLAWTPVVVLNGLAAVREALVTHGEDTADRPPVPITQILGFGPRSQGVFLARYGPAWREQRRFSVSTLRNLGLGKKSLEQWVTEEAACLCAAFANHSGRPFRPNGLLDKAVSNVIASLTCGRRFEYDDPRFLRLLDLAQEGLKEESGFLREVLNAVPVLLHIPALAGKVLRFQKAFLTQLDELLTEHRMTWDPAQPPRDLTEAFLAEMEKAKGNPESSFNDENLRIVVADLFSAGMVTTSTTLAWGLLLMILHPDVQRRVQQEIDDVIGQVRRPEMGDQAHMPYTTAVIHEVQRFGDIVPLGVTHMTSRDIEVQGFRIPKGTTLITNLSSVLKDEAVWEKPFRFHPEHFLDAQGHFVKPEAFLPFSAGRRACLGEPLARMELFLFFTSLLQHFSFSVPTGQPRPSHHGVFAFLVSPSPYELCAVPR

[16] = Cytotoxicity against HAF cells assessed as reduction in cell viability measured after 48 hrs by MTS assay; type: cell-based; conditions: Homo sapiens
PANC-1 [17] = experiment: Cytotoxicity against human PANC1 cells assessed as reduction in cell viability measured after 48 hrs by MTS assay; type: cell-based; conditions: PANC-1, 48 h
[18] = Toxicity in Balb/c nude mouse xenografted with PANC1 cells assessed as pathological changes in liver at 25 to 50 mg/kg/day, ip by H and E staining-based microscopic analysis; type: organism-based; conditions: in vivo
Myoferlin [19] = molecular target: T1, Myoferlin; experiment: Binding affinity to recombinant human GST-tagged MYOF C2 domain (3445 to 3912 residues) expressed in Escherichia coli BL21 (DE3) at 145 uM by STD-NMR analysis
PANC-1 [20] = experiment: Antimigratory activity against human PANC1 cells measured after 18 hrs in presence of mitomycin C using crystal violet staining by inverted microscopy-based transwell assay; type: functional, cell-based
MIA PaCa-2 [21] = experiment: Antimigratory activity against human MIAPaCa2 cells measured after 24 hrs in presence of mitomycin C using crystal violet staining by inverted microscopy-based transwell assay; type: functional, cell-based
PANC-1 [22] = experiment: Antimetastatic activity against human PANC1 cells harboring luciferase reporter gene xenografted in Balb/c nude mouse assessed as reduction in lung metastasis burden by measuring reduction in luminescence at 50 mg/kg/day, ip measured every 10 days by bioluminescence imaging analysis relative to control; type: functional
Cytochrome P450 2B6 = molecular target: T2, Cytochrome P450 2B6 (Homo sapiens, UniProt P20813); experiment: Inhibition of CYP2B6 in human liver microsomes using bupropion as substrate preincubated for 5 mins followed by NADPH-generating system addition and measured after 20 mins by LC-MS/MS analysis
T2 sequence (P20813 whole entry): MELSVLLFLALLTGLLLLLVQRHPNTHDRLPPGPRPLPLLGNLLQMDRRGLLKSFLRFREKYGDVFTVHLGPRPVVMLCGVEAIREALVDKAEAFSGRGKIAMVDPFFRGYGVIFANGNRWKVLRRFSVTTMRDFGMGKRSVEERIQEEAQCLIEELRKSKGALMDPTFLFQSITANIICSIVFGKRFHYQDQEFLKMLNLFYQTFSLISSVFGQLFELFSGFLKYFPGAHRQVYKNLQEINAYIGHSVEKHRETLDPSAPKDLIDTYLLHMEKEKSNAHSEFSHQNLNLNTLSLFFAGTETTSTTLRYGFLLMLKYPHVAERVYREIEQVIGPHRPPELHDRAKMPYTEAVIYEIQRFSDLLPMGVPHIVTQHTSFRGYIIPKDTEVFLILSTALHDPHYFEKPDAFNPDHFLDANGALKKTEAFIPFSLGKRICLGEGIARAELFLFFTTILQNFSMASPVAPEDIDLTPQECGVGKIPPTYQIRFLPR

PANC-1 [23] = experiment: Cytotoxicity against human PANC1 cells assessed as reduction in cell viability at 0.1 to 1 uM measured after 18 hrs by MTS assay; type: cell-based; conditions: panc-1, 18 h
PANC-1 [24] = experiment: Antiinvasive activity against human PANC1 cells measured after 18 hrs in presence of mitomycin C using crystal violet staining by inverted microscopy-based matrigel coated transwell assay; type: functional, cell-based; conditions: PANC-1, 18 h
Myoferlin [25] = molecular target: T1, Myoferlin; experiment: Reversible binding affinity to recombinant human GST-tagged MYOF C2 domain (3445 to 3912 residues) expressed in Escherichia coli BL21 (DE3) by surface plasmon resonance analysis
PANC-1 [26] = experiment: Effect on MMP2 secretion in MYOF-knockout human PANC1 cells up to 400 nM by Western blot analysis; type: functional, cell-based
PANC-1 [27] = experiment: Antimigratory activity against MYOF-knockout human PANC1 cells measured after 18 hrs in presence of mitomycin C using crystal violet staining by inverted microscopy-based transwell assay; type: functional, cell-based
PANC-1 [28] = experiment: Effect on dynein expression in human PANC1 cells up to 400 nM by Western blot analysis; type: functional, cell-based
PANC-1 [29] = experiment: Effect on VEGFR2 expression in MYOF-knockout human PANC1 cells up to 400 nM by Western blot analysis; type: functional, cell-based

For `CCc1nc(-c2ncc(OC)cn2)n(-c2cccc(C(=O)NCCCCc3ccccc3)c2)n1`, the Activity (PANC-1 [1]) was “inactive”, the inhibition (Myoferlin [2]) was “Dose-dependent effect” and the Activity [3] was “Non-Toxic”. The IC50 (MCF-10A) was 27600 nM, the inhibition (Myoferlin [4]) was “Dose-dependent effect” and the Activity (PANC-1 [5]) was “inactive”. For the same compound, the Activity [6] was “Non-Toxic”, the IC50 (MIA PaCa-2 [7]) was 1540 nM and the IC50 (Capan-2 [8]) was 2850 nM. The IC50 [9] was 14600 nM, the Activity (Capan-2 [10]) was “Dose-dependent effect” and the survival at 50 mg/kg/day (PANC-1 [11]) was 87.5%. For the same compound, the IC50 (Cytochrome P450 2E1) was > 50000 nM, the inhibition (Myoferlin [12]) was “Dose-dependent effect” and the Activity (PANC-1 [13]) was “inactive”. The Activity (PANC-1 [14]) was “inactive”, the Activity [15] was “inactive” and the IC50 (Cytochrome P450 2D6) was 49600 nM. The IC50 [16] was 8540 nM, the IC50 (PANC-1 [17]) was 840 nM and the Activity [18] was “Non-Toxic”. For the same compound, the Activity (Myoferlin [19]) was “Active”, the Activity (PANC-1 [20]) was “Dose-dependent effect” and the IC50 (PANC-1 [20]; PANC-1, 18 h) was 110 nM. For the same compound, the Activity (MIA PaCa-2 [21]) was “Dose-dependent effect”, the “fold change (FC)” value (PANC-1 [22]) was 5 and the IC50 (Cytochrome P450 2B6) was > 50000 nM. For the same compound, the Activity (PANC-1 [23]) was “Non-Toxic”, the IC50 (PANC-1 [24]) was 120 nM and the Activity (Myoferlin [25]) was “Dose-dependent effect”. For the same compound, the Kd (Myoferlin [25]) was 94 nM, the Activity (PANC-1 [26]) was “inactive” and the Activity (PANC-1 [27]) was “inactive”. For the same compound, the Activity (PANC-1 [28]) was “inactive” and the Activity (PANC-1 [29]) was “inactive”.
